{"source": "patent US4661482A", "about": "“Use of pyrazolobenzoxazines in method of treating cerebral senescence and cerebral hypoxin” (Roussel Uclaf, priority 1985, dated 1987)", "key": {"[1]": {"experiment": "Test of hypobare anoxemia (antianoxic activity)", "type": "in vivo, male mice", "details": "head: orally, text: sub-cutaneously, 90 mm of Hg", "description": "A--Test of hypobare anoxemia:\nMale mice weighing 20-22 g, having fasted for 5 hours, were divided into groups of 10 animals and the test product was administered to the animals sub-cutaneously. Fifteen minutes after administration of the product, the animals were placed in a 2 liter dessicator in which the pressure was brought rapidly to 90 mm of Hg by a pump, and their time of survival was noted expressed in seconds. The increase of the survival time was recorded expressed as a percentage of the animals treated in relation to the control animals submitted to the same conditions."}, "[2]": {"experiment": "Determination of hypotensive activity (carotidien arterial pressure, anesthetised rats)", "type": "in vivo, male rats of WISTAR strain", "details": "vs initial control pressure", "description": "The hypotensive activity was studied on male rats of WISTAR strain weighing about 300 g and anesthetised with nembutal (50 mg/kg by intraperitoneal route). The test product was administered intravenously into the jugular vein and the carotidien arterial pressure was measured before and after administration of the product. The following table reports the variations expressed in percentages of the arterial pressure after administration of the product in relation to the initial control arterial pressure."}, "cerebral neuronal cells": {"test_system": "cerebral neuronal cells", "experiment": "enolase test (brain deprived of blood by ligature of the arteries)", "type": "in vivo", "details": "Rattus norvegicus, ip; intraperitoneal; rats; read-out: dose to which the releasing of enolase is diminished", "description": "Suffering cerebral neuronal cells release enolase and the test was carried out on rats whose brain had been totally deprived of blood by ligature of the arteries supplying the brain. The product of Example 3 administered intraperitoneally diminished the releasing of enolase to a dose of 0.1 mg/kg. Therefore it was considered that it protected the cerebral cells against ischemia."}, "dopaminergic receptors [3]": {"test_system": "dopaminergic receptors", "experiment": "Rotation behavior after unilateral lesion of the nigra-striated bundle by 6-hydroxydopamine", "type": "in vivo, male rats", "details": "intraperitoneal; rats, groups of 8; starting dose", "description": "Male rats of 220 g were injured in the nigra-striated dopaminergic bundle according to Ungerstedt's method [Ungerstedt, Acta physiol. Scand. (1971) Vol. 82, suppl. 367.69-93], modified by unilateral injection of 9.2 μg of 6-hydroxydopamine hydrochloride in solution in 4 μl of physiological solution containing 0.5 mg/ml of ascorbic acid. […] It therefore caused an agonistic action on the dopaminergic receptors at the central level."}, "[4]": {"experiment": "Determination of antihypertensive activity (spontaneously hypertensive rats)", "type": "in vivo, spontaneously hypertensive male rats of the OKAMOTO strain", "details": "0.5 mg/kg orally; one hour after administration", "description": "The anithypertensive activity was studied on spontaneously hypertensive male rats of the OKAMOTO strain aged 20 weeks and weighing 300 to 320 g. The product was administered orally 48 hours after the positioning of an intracarotidien catheter to measure the arterial pressure. The pressure was measured before and 1 hour after administration of the product. For the product of Example 3, at a dose of 0.5 mg/kg the variation in percentage of arterial pressure after administration of the product in relation to the initial control pressure was -15% one hour after administration."}, "Acute toxicity (LD0)": {"experiment": "Acute toxicity (LD0)", "type": "in vivo", "details": "oral, mice", "description": "The lethal dose LD0 of the product of Example 3 was evaluated after oral administration to mice. LD0 is the maximum dose not causing any mortality in 8 days."}, "dopaminergic receptors [5]": {"test_system": "dopaminergic receptors", "experiment": "Stereotype behavior", "type": "in vivo, male rats", "details": "intraperitoneal; rats, groups of 5; observed every half hour over 5 hours; starting dose", "description": "The tests were carried out on groups of 5 male rats weighing 150 to 180 g and each animal was placed individually in a barred cage (29×25×17 cm) containing a few wood shaving. The test product was administered intraperitoneally and the behavior of the animals was noted every half hour over 5 hours with the rating recommended by HALLIWELL et al. [Brit. J. Pharmacol. (1964), Vol. 23, p. 330-350]. The animal was asleep (0), it was awake but immobile (1), it turned in the cage (2), it sniffed the cover (3), it licked the walls (4), it touched the wood shavings or the bars of the cage with its teeth (5), it bit the shavings or the bars of the cage (6).\nThe total is determined of the scores per group taken at different times after administrationof the product studied."}}, "data": [{"compound": "4a RS (4aα,7α,8aβ)-7-methylthiomethyl-2,4,4a,5,6,7,8a,9-octahydro-5-propylpyrazolo-[3,4-g]-1,4-benzoxazine hydrochloride [Example 4]", "values": [{"measurement": "Increase in survival time", "setting": "[1]; 1 mg/kg", "result": "+32%"}, {"measurement": "% Variation of arterial pressure, 5 minutes after administration", "setting": "[2]; 0.01 mg/kg intravenous", "result": -5, "unit": "%"}, {"measurement": "% Variation of arterial pressure, 30 minutes after administration", "setting": "[2]; 0.01 mg/kg intravenous", "result": -5, "unit": "%"}, {"measurement": "% Variation of arterial pressure, 5 minutes after administration", "setting": "[2]; 0.1 mg/kg intravenous", "result": -21, "unit": "%"}, {"measurement": "% Variation of arterial pressure, 30 minutes after administration", "setting": "[2]; 0.1 mg/kg intravenous", "result": -17, "unit": "%"}]}, {"compound": "CCCN1CCO[C@@H]2Cc3n[nH]cc3C[C@H]21", "note": "(relative stereo) [Example 3, [4a SR trans]-5-propyl-2,4,4a,5,6,7,8a,9-octahydro-pyrazolo-[4,3-g]-1,4-benzoxazine]", "values": [{"measurement": "minimal effective dose", "setting": "cerebral neuronal cells", "result": 0.1, "unit": "mg/kg"}, {"measurement": "dose from which rotations contra-lateral to the injured side are caused", "setting": "dopaminergic receptors [3]", "result": 0.05, "unit": "mg/kg"}, {"measurement": "variation in percentage of arterial pressure in relation to the initial control pressure", "setting": "[4]", "result": -15, "unit": "%"}, {"measurement": "LD0 (maximum dose not causing any mortality in 8 days)", "setting": "Acute toxicity (LD0)", "result": "≥ 200", "unit": "mg/kg"}, {"measurement": "Increase in survival time", "setting": "[1]; 0.01 mg/kg", "result": "+37%"}, {"measurement": "Increase in survival time", "setting": "[1]; 0.1 mg/kg", "result": "+90%"}, {"measurement": "dose from which stereotype movements are caused", "setting": "dopaminergic receptors [5]", "result": 0.1, "unit": "mg/kg"}, {"measurement": "% Variation of arterial pressure, 5 minutes after administration", "setting": "[2]; 0.01 mg/kg intravenous", "result": -19, "unit": "%"}, {"measurement": "% Variation of arterial pressure, 30 minutes after administration", "setting": "[2]; 0.01 mg/kg intravenous", "result": -8, "unit": "%"}, {"measurement": "% Variation of arterial pressure, 5 minutes after administration", "setting": "[2]; 0.1 mg/kg intravenous", "result": -26, "unit": "%"}, {"measurement": "% Variation of arterial pressure, 30 minutes after administration", "setting": "[2]; 0.1 mg/kg intravenous", "result": -21, "unit": "%"}]}]}
